In brackets after ≈: the same amount, converted by molar mass.
Assays:
Propionibacteria = test: MIC with Propionibacteria (Table X); type: cell-based; settings: 48 h, 48 hours at 37° C., anaerobic
Experimental: (§1) Further experiments have also been conducted to determine the MIC of a number of other compositions as follows. The experimental procedure followed is the same as that initially described at the beginning of this Examples and Data section of the specification, except where indicated below.
The results were obtained following incubation for 48 hours at 37° C. in anaerobic conditions.

yeasts = test: MIC with yeasts (Table XI); type: cell-based; settings: 48 h, 48 hours at 37° C., aerobic
Experimental: as §1
The results were obtained following incubation for 48 hours at 37° C. in aerobic conditions.

[1] = system: Respiratory Syncytial Virus (RSV), strain A2; test: Antiviral: cytopathic effect of RSV on A549 cells; type: cell-based; settings: for Cytopathic effect (cpe): added 1 hour after virus absorption, 96 hours at 33° C., versus untreated lane
Experimental: A549 (ATCC CCL-185) cells were plated onto a 96 well and allowed to attach overnight, the wells were washed, and 100 ul of DMEM (Gibco) with 2% FCS was added. To the first column of the data set below, 100 μl of neat virus was added. The virus used was Respiratory Syncytial Virus (RSV), strain A2, a common laboratory strain which retains the ability to infect animal models.
A two serial dilution was performed (up to column 10), lanes 11+12 were uninfected controls, but relevant lanes contained the appropriate concentration of Laureth 4, laureth 4 was added 1 hour after virus absorption. The alkoxylated alkanol compounds used in the experiment were ‘high purity’, i.e. having a GC purity of at least 97%.
After 96 hours incubation at 33° C. the medium was removed, cell washed with PBS and stained with methylene blue (Gibco). Cytopathic effect (cpe) was noted visually and wells marked either as positive or negative when view under a light microscope at 4× magnification.

MRSA NCTC 11939 = test: Synergy testing: disc susceptibility, zone of inhibition on agar containing Laureth derivative; type: cell-based, Staphylococcus aureus; settings: MRSA NCTC 11939, disc test
Experimental: There now follows data relating to a screen for synergistic interaction between Laureth derivatives [C12E1 to C12E8] and 12 conventional anti-staphylococcal agents.
Ethoxylated Lauryl Alcohol Derivative Preparation As plates containing quarter strength of the MIC of NCTC 11939 are needed, and therefore very small weights of each compound, they were prepared at twenty time strength in 20 mL volumes in plastic universals. Once prepared these solutions were diluted […] by adding 1 mL to 1 mL SDW, resulting a 2 mL volume at ten times strength. This was undertaken in duplicate to create two identical plates.
IST was prepared as previously stated in above. 18 mL agar was added to each universal and then poured into sterile Petri dishes. Control plates were prepared as stated above
A 0.5 McFarland suspension of MRSA NCTC 11939 was prepared using SDW. This was then adjusted to a concentration of 1.5×107 by adding 200 μL to 1.8 mL of SDW. Once diluted, a sterile cotton swab was used to spread the suspension evenly across the entire surface of each agar plate.
Twelve antibiotics discs were added to the plates, 6 per plate in a circle. The plates were then incubated aerobically at 37° C.
The diameter of the zones of clearance were measured and recorded in millimetres. The zones for each compound were compared to the control and to BSAC breakpoints.
A variation of zone size within 2 mm is within acceptable limits of assay reproducibility.

Structure (SMILES): CCCCCCCCCCCCOCCOCCOCCOCCO [L4, Tetraethylene Glycol Monododecyl Ether]
- MIC (Propionibacteria; Propionibacterium granulosum 354039G): 440 µM (≈ 160 µg/mL)
- MIC (Propionibacteria; Propionibacterium granulosum 354043J): 440 µM (≈ 160 µg/mL)
- MIC (Propionibacteria; Propionibacterium granulosum 354044V): 880 µM (≈ 319 µg/mL)
- MIC (Propionibacteria; Propionibacterium species 387327Y): 440 µM (≈ 160 µg/mL)
- MIC (Propionibacteria; certain of the Propionibacteria tested): < 880 µM
- MIC (Propionibacteria; Cutibacterium acnes, Propionibacterium acnes 737): 880 µM (≈ 319 µg/mL)
- MIC (Propionibacteria; Cutibacterium avidum, Propionibacterium avidum 340090P): 880 µM (≈ 319 µg/mL)
- MIC (Propionibacteria; Cutibacterium avidum, Propionibacterium avidum 340093T): 880 µM (≈ 319 µg/mL)
- MIC (Propionibacteria; Cutibacterium avidum, Propionibacterium avidum 340097V): 880 µM (≈ 319 µg/mL)
- MIC (Propionibacteria; Cutibacterium avidum, Propionibacterium avidum 354020J): 880 µM (≈ 319 µg/mL)
- MIC (Propionibacteria; Cutibacterium avidum, Propionibacterium avidum 354025L): 880 µM (≈ 319 µg/mL)
- MIC (yeasts; Candida guilliemondii 380022E): > 220 µM
- MIC (yeasts; Candida lustaniae 458891B): > 220 µM
- MIC (yeasts; all of the yeasts tested): < 880 µM
- MIC (yeasts; Candida albicans, Candida albicans 383107): > 220 µM
- MIC (yeasts; Candida albicans, Candida albicans 384403C): 220 µM (≈ 79.8 µg/mL)
- MIC (yeasts; Candida albicans, Candida albicans 457932F): > 220 µM
- MIC (yeasts; Candida albicans, Candida albicans 464644V): 220 µM (≈ 79.8 µg/mL)
- MIC (yeasts; Candida albicans, Candida albicans 540668D): 110 µM (≈ 39.9 µg/mL)
- MIC (yeasts; Candida albicans, Candida albicans 540992V): 220 µM (≈ 79.8 µg/mL)
- MIC (yeasts; Candida albicans, Candida albicans 561251J): > 220 µM
- MIC (yeasts; Candida dubliniensis, Candida dubliniensis 383086P): 110 µM (≈ 39.9 µg/mL)
- MIC (yeasts; Candida tropicalis, Candida tropicalis 470273M): > 220 µM
- MIC (yeasts; Kluyveromyces marxianus, Candida kefyr 337838T): 55 µM (≈ 19.9 µg/mL)
- MIC (yeasts; Lodderomyces parapsilosis, Candida parapsilosis 381611V): > 220 µM
- MIC (yeasts; Lodderomyces parapsilosis, Candida parapsilosis 547133B): > 220 µM
- MIC (yeasts; Nakaseomyces glabratus, Candida glabrata 437713D): > 220 µM
- MIC (yeasts; Nakaseomyces glabratus, Candida glabrata 882870Q): > 220 µM
- MIC (yeasts; Pichia kudriavzevii, Candida krusei 378573D): > 220 µM
- Cytopathic effect (cpe) ([1]; 0.01 mM): significantly reduced
- Cytopathic effect (cpe) ([1]; 0.1 mM): significantly reduced
- cytopathic effect of the virus on the cells (overall) ([1]; RSV A2 on A549 cells): can alleviate the cytopathic effect

Structure (SMILES): CCCCCCCCCCCCOCCOCCOCCOCCOCCOCCOCCOCCO [L8, Octaethylene Glycol Monododecyl Ether]
- susceptibility to various other agents in the presence of Laureth derivative (MRSA NCTC 11939): slight increase in susceptibility

From US20130165368A1, “ANTIMICROBIAL COMPOUNDS” (priority 2010, published 2013)
